Measured values from PMC8157947, “Peptidic boronic acids are potent cell-permeable inhibitors of the malaria parasite egress serine protease SUB1” (Proceedings of the National Academy of Sciences of the …, 2021).
Values joined by “and” are separate entries in the source; they are usually repeats but may differ in a detail not shown here. Equal entries are not always repeated.

Assays:
P. falciparum schizonts = test: Washout egress assay, hemoglobin release into culture supernatants; assay type: cell-based; details: Plasmodium falciparum; 4 h pretreatment, then washout
Method: (§1) Short-term egress, invasion, and washout assays were performed essentially as described previously ([27], [28], [42]). Briefly, highly synchronous mature Percoll-enriched schizonts with or without added fresh RBCs (∼5% parasitaemia final) were incubated with compounds under test or vehicle only (DMSO, 1% vol/vol). For washout assays, schizonts were treated with C2 or various concentrations of inhibitor 3j for 1 to 4 h, then washed extensively (at least four times) prior to addition to fresh RBCs where required. After incubation at 37 °C for just 1 to 4 h (or overnight for invasion assays) to allow schizont rupture, cells were pelleted. Clarified culture supernatants were assessed for extent of hemoglobin release (a measure of schizont rupture) by absorption spectroscopy at 415 nm as described previously ([28]) or analyzed by Western blot using antibodies against SERA5 ([7], [11]). To quantify generation of new rings, samples of the cultures were fixed with 4% paraformaldehyde/0.02% glutaraldehyde and stained with SYBR Green I (Life Technologies) and then analyzed by flow cytometry on a BD FACSVerse using BD FACSuite software. Data were analyzed using FlowJo software. All cultures were also routinely analyzed by microscopic examination of Giemsa-stained thin films to visually assess parasite morphology.

[1] = molecular target: T1, recombinant PfSUB1 (rPfSUB1) (Plasmodium falciparum, UniProt Q8I0V0); test: rPfSUB1 fluorogenic peptide substrate cleavage inhibition assay; assay type: biochemical; details: fluorogenic peptide substrate; mean ± SD of at least three measurements; read-out: IC50 (nM) (rPfSUB1)
T1 construct: Chymotrypsin-treated rPfSUB1 (expressed and purified as described previously); made in house
T1 sequence (Q8I0V0 218-688): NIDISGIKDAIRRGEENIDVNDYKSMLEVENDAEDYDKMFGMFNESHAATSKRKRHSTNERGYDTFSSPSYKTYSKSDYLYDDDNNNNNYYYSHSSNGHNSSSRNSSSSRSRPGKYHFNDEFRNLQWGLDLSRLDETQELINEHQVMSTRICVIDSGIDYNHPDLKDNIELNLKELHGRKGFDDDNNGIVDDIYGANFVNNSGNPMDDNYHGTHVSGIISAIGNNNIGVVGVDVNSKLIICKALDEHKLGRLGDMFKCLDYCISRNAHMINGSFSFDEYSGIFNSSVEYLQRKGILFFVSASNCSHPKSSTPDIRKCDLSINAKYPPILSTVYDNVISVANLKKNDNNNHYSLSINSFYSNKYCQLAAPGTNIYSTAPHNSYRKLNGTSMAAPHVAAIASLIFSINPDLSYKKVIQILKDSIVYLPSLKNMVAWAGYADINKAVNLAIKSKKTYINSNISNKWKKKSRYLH
Description: We previously described the development of a fluorescence-based in vitro assay suitable for the evaluation of substrate-based PfSUB1 inhibitors, using recombinant PfSUB1 (rPfSUB1) and fluorogenic peptide substrates based on cleavage sites within endogenous protein substrates of PfSUB1 ([13], [21]). […] This was perhaps unsurprising due to the high molecular mass and polar nature of these compounds, including the presence of a carboxylic acid moiety that was designed to mimic endogenous PfSUB1 protein substrates by interacting with the basic S’ surface of the PfSUB1 active-site cleft ([16]). Collectively, these features likely rendered the compounds poorly membrane penetrant.
Fluorescence of this peptide is quenched by rhodamine dimerization in the intact substrate but increases upon cleavage at the internal Q-D bond. Chymotrypsin-treated rPfSUB1 (expressed and purified as described previously ([16]) was stored at −80 °C as a 228 U/mL stock in 20 mM Tris–HCl pH 8.2, 150 mM NaCl, 10% glycerol, and diluted for use (1:500 or 1:600) in reaction buffer (20 mM Tris–HCl pH 8.2, 150 mM NaCl, 12 mM CaCl2, 25 mM CHAPS). Peptidic boronic acid inhibitors were dissolved in 100% DMSO at 10 or 20 mM, then further diluted in DMSO to generate stock solutions ranging from 500 to 0.01 μM and then used diluted 1:100 in the enzyme reactions. All reactions were performed in wells of white 96-well microwell plates (Nunc); 50 μL diluted rPfSUB1 was preincubated for 5 min with 1 μL each of the serially diluted boronic acid inhibitors, followed by addition of 50 μL substrate solution (0.1 μM final). Subsequent fluorescence increase was continuously monitored using a SpectraMax M5e plate reader and SoftMax Pro-6.3 software, with readings taken every 5 min for 60 min using excitation and emission values of 552 and 580 nm, respectively. […] All experiments were performed in duplicate.

[2] = system: P. falciparum 3D7 schizonts; test: Short-term egress/invasion assay, ring formation by flow cytometry; assay type: cell-based, Plasmodium falciparum
Method: For this, P. falciparum cultures containing synchronous, highly mature schizonts were supplemented with compounds 3b, 3e, 3i, and 3j at a range of dilutions, then allowed to undergo egress and invasion for just 4 h in the continued presence of the compounds, before assessing formation of newly invaded “ring” stage parasites by flow cytometry.
as §1

rPfSUB1 = rPfSUB1 (Plasmodium falciparum, UniProt Q8I0V0); test: Progress curve kinetic analysis of rPfSUB1 inhibition
Chain of rPfSUB1 (Q8I0V0 218-688): as above
Description: Boronic acids form reversible covalent bonds with serine and threonine proteases ([26]). Inhibition is generally time dependent, and the covalent nature of the binding can result in relatively long target occupancy times despite the reversibility of the bond. […] To analyze the kinetic characteristics of the interaction between 3j and rPfSUB1, we used progress curve analysis to continuously monitor rPfSUB1-mediated cleavage of a fluorogenic substrate in the presence of a range of concentrations of 3j. […] Under such conditions, fit of the progress curves by nonlinear regression to Eq. 1 (see Materials and Methods) allows determination of kobs, the pseudo first-order rate constant for onset of inhibition. The kobs is effectively a composite of the on and off rates, so least linear squares regression of the calculated kobs values against inhibitor concentration allows determination of values of the pseudo first-order dissociation rate constant koff and the second-order association rate constant kon for the inhibitor-rPfSUB1 interaction, based respectively on values from the y-intercept and slope.
Progress curves of SERA4st1F-6R12 cleavage by rPfSUB1 were acquired at seven concentrations of inhibitor compound 3j over a period of 35 min, during which fluorescence increases in the absence of inhibitor were linear. The obtained progress curves (four independent replicates) were fit using GraphPad Prism 8.0 software to the following time-dependent inhibition equation: [P] = Vs∗t + ((Vi−Vs)/kobs)∗(1−exp(−kobs∗t)).
In the equation, Vi is the initial velocity, Vs is the final steady-state velocity, and kobs reflects the observed pseudo first-order rate of inactivation. The obtained kobs values were plotted against compound concentration using a linear least squares fit. All statistical analysis was carried out using GraphPad Prism 8.

`CC(=O)NC(C(=O)NC(C(=O)NCC(=O)NC(C)B(O)O)C(C)C)C1CCCC1` (centres unmarked) [3j] was tested, and the EC50 (P. falciparum schizonts) was ~2000 nM, the IC50 [1] was ~5.7 nM and 5.7 nM and the “schizont phenotype in Giemsa-stained thin films” value ([2]; 10 μM, 4 h incubation) was “arrest of unruptured schizonts with no ring formation”. The EC50 ([2]; Plasmodium falciparum, mature 3D7 schizonts with RBCs, 4 h, flow cytometry) was 2500 ± 300 nM, the Ki (rPfSUB1) was 1 nM and the “t1/2^off (bound half-life)” value (rPfSUB1; from koff) was ~31 min and ~30 min. For the same molecule, the koff (rPfSUB1; read-out: koff, dissociation rate constant) was 0.00037 s⁻¹ and the kon (rPfSUB1; read-out: kon, second-order association rate constant) was 360000 M⁻¹ s⁻¹.
